As usually defined, the solubility is the dissolved amount per volume that the medium holds. For orientation: pKa means the negative logarithm of the acid dissociation constant. Higher therefore signals a group that holds its proton tightly. A word on the logP: it is the decadic logarithm of the partition coefficient of the neutral form, usually between octanol and water. Lower therefore signals a more hydrophilic compound.

≈ marks a conversion by molar mass, not a printed value. Like-named read-outs stand apart in the source and are kept apart here.

Assay type in all cases: physicochemical
A short description of one data set: XPS surface composition. To be noted: 25% bulk drug loading with HPMCAS. On the procedure: X-ray Photoelectron Spectroscopy (XPS). XPS experiments were performed using a Physical Electronics Quantera SXM instrument equipped with a monochromatic Al Kα x-ray source (hν = 1486.6 eV) and a concentric hemispherical analyzer. Charge neutralization was performed using low energy (1.5 eV) electrons and low energy (8 V) Ar^+ ions. The binding energy axis was calibrated using sputter cleaned Cu foil (Cu 2p3/2 = 932.62 eV) and Au foil (Au 4f7/2 = 83.96 eV). Spectra were charge references to C-(C,H) at 284.8 eV. All measurements were performed at an electron takeoff angle of 45° relative to the sample platen plane.

A short description of data set [1]: Solubility of crystalline posaconazole.
A short description of a further data set: pKa of posaconazole. From the text: (§1) Table 1 Physical/chemical properties of posaconazole.
Data set [2] in a line: Two-stage biorelevant dissolution (SGF then FaSSIF). On the procedure:
Simulated gastric fluid (SGF) was made with sodium chloride (34.2 mM), and the pH was adjusted to 1.8 with 12N HCl. The 2× fasted state simulated intestinal fluid (FaSSIF) was prepared using simulated intestinal fluid (SIF) powder (purchased from Biorelevant.com Ltd., London, UK), sodium phosphate monobasic monohydrate (114.5 mM), and sodium chloride (423.7 mM), and the pH was adjusted to 6.9 [35, 36].
Two-stage dissolution was performed on the solid dispersion powder at the dose relevant level of drug quantity using the Distek Model 2500 dissolution system (North Brunswick, NJ USA) with USP Apparatus 2 (paddles) setup. The paddles were operated at 100 rpm, and the dissolution medium was maintained at 37 ± 0.5 °C. The SGF medium of 250 mL was added for the first stage, and then FaSSIF medium of 250 mL at 30 min was added for the second stage to achieve the correct pH, ionic strength, and bile salt levels for FaSSIF. The time points that the sample was withdrawn were indicated by the dots in the dissolution plots. At each time point, ~2 mL was sampled and syringe-filtered (0.45 µm PVDF filter). The filtrate was diluted with diluent (water:acetonitrile = 1:1 v/v) and analyzed by an Agilent HPLC (Santa Clara, CA, USA) with a UV detector. […]

Another data set can be described thus: Log P of posaconazole.
Text: as §1

For the compound `CC[C@@H]([C@H](C)O)n1ncn(-c2ccc(N3CCN(c4ccc(OC[C@@H]5CO[C@@](Cn6cncn6)(c6ccc(F)cc6F)C5)cc4)CC3)cc2)c1=O` [posaconazole], the “~API Loading on Surface Based on F and N” value in “XPS surface composition” was around 100%. The solubility was 2 µg/mL (≈ 2.85 µM) in data set [1] (fasted state simulated intestinal fluid (FaSSIF), fassif, read-out: Solubility); 790 µg/mL (≈ 1130 µM) in data set [1] (pH 1, read-out: Solubility); 3 µg/mL (≈ 4.28 µM) in data set [1] (pH 3, read-out: Solubility); 1 µg/mL (≈ 1.43 µM) in data set [1] (pH 7, read-out: Solubility); around 790 µg/mL (≈ 1130 µM) in data set [1] (simulated gastric fluid (SGF), pH 1.8, read-out: crystalline solubility). For the same compound, the pKa in the data set “pKa of posaconazole” (piperazine N) was 3.6; in the data set “pKa of posaconazole” (triazole N), 4.6. In addition, in data set [2] (SGF pH 1.8, first 30 min), the “drug release in SGF stage (in words)” value is reported as “the percent dissolved is high”. Besides, the “drug release in FaSSIF stage (in words)” value in data set [2] (second stage, FaSSIF) was “significantly drops to approximately the crystalline solubility”. Moreover, the logP in “Log P of posaconazole” came to 5.

The values above are taken from article PMC8401923, “Processing Impact on In Vitro and In Vivo Performance of Solid Dispersions—A Comparison between Hot-Melt Extrusion and Spray Drying” (Pharmaceutics, 2021).
